# Reference: ChEMBL document CHEMBL1201862, “PubChem BioAssay data set” (2004)
#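 Values below derive from 48-hour exposures of cells grown in 96-well plates, with endpoints linearly interpolated between the two concentrations bracketing the appropriate inhibition level. GI50 marks 50% less growth.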 Active and inactive are the calls of the source. No stated cut-off is given here; in the data, active = GI50 up to about 1.1 µM and inactive = higher.
# Experiments:
# Assay in all cases: NCI-60 cell line screen, 48 h
# [1] = tested on: 786-0
# [2] = tested on: BT-549
# [3] = tested on: COLO 205
# [4] = tested on: HCT-15
# [5] = tested on: HOP-62
# [6] = tested on: HOP-92
# [7] = tested on: HT-29
# [8] = tested on: Hs-578T
# [9] = tested on: MCF7
# [10] = tested on: MOLT-4
# [11] = tested on: NCI-H226
# [12] = tested on: RPMI-8226
# [13] = tested on: SK-MEL-2
# [14] = tested on: T47D
# [15] = tested on: A498
# [16] = tested on: CCRF-CEM
# [17] = tested on: MDA-MB-435
# [18] = tested on: SF-295
# [19] = tested on: SK-OV-3
# [20] = tested on: SN12C
SMILES,GI50 [1],GI50 [2],GI50 [3],GI50 [4],GI50 [5],GI50 [6],GI50 [7],GI50 [8],GI50 [9],GI50 [10],GI50 [11],GI50 [12],GI50 [13],GI50 [14],GI50 [15],GI50 [16],GI50 [17],GI50 [18],GI50 [19],GI50 [20]
O=C(CC(=O)n1nc(-c2ccccc2)c(/N=N/c2ccccc2C(=O)O)c1-c1ccccc1)Nc1ccc(Cl)cc1,36.1 µM (inactive),24.7 µM (inactive),50.7 µM (inactive),26.9 µM,19.6 µM (inactive),5.9 µM (inactive),34.2 µM (inactive),35.6 µM (inactive),30.3 µM (inactive),5.57 µM (inactive),30.6 µM (inactive),20.4 µM (inactive),29.5 µM (inactive),9.77 µM (inactive),,,,,,
O=C(O)/C=C\C(=O)Nn1c(Cc2ccc(Cl)cc2)n[nH]c1=O,> 100 µM (inactive),> 100 µM (inactive),> 100 µM (inactive),> 100 µM,> 100 µM (inactive),,> 100 µM (inactive),> 100 µM (inactive),> 100 µM (inactive),> 100 µM (inactive),> 100 µM (inactive),,> 100 µM (inactive),> 100 µM (inactive),> 100 µM (inactive),> 100 µM (inactive),> 100 µM (inactive),> 100 µM (inactive),> 100 µM (inactive),> 100 µM (inactive)
N#Cc1[nH]c(=O)n(-c2ccc(Cl)cc2)c1N,> 10 µM (inactive),> 10 µM (inactive),> 10 µM (inactive),> 10 µM,> 10 µM (inactive),,> 10 µM (inactive),> 10 µM (inactive),> 10 µM (inactive),> 10 µM (inactive),> 10 µM (inactive),> 10 µM (inactive),> 10 µM (inactive),> 10 µM (inactive),> 10 µM (inactive),> 10 µM (inactive),> 10 µM (inactive),> 10 µM (inactive),> 10 µM (inactive),> 10 µM (inactive)
CCOC(=O)c1ccc(N(C)Cc2cnc3nc(N)nc(N)c3n2)cc1,7.45 µM (inactive),17.3 µM (inactive),> 100 µM (inactive),4.85 µM,13 µM (inactive),,7.98 µM (inactive),12.7 µM (inactive),12.6 µM (inactive),7.91 µM (inactive),20.1 µM (inactive),74 µM (inactive),21.4 µM (inactive),26.9 µM (inactive),13.1 µM (inactive),89.9 µM (inactive),8.83 µM (inactive),10.2 µM (inactive),18.5 µM (inactive),40.4 µM (inactive)
O=C(O)[C@@H]1C2CC([C@@H]1C(=O)O)[C@H](N1C(=O)CCC1=O)[C@@H]2Br (some centres not stated),> 100 µM (inactive),> 100 µM (inactive),> 100 µM (inactive),> 100 µM,> 100 µM (inactive),> 100 µM (inactive),> 100 µM (inactive),> 100 µM (inactive),,> 100 µM (inactive),> 100 µM (inactive),> 100 µM (inactive),> 100 µM (inactive),> 100 µM (inactive),> 100 µM (inactive),> 100 µM (inactive),> 100 µM (inactive),> 100 µM (inactive),> 100 µM (inactive),> 100 µM (inactive)
CCOC(=O)/C=C(/C(=O)OCC)n1c(=O)c(C)cn(C2CC(N=[N+]=[N-])C(CO)O2)c1=O (configuration not stated),25.4 µM (inactive),48.6 µM (inactive),14.5 µM (inactive),29.7 µM,59.7 µM (inactive),30.8 µM (inactive),35.7 µM (inactive),51.2 µM (inactive),19.8 µM (inactive),< 0.01 µM (active),45.4 µM (inactive),17.4 µM (inactive),19.5 µM (inactive),27.2 µM (inactive),44.1 µM (inactive),,29.6 µM (inactive),79.6 µM (inactive),> 100 µM (inactive),37.2 µM (inactive)
COC(=O)C(Cc1ccc(Oc2cc(CC(NC(=O)c3ccccc3)C(=O)OC)ccc2OC)cc1)NC(=O)c1ccccc1 (configuration not stated),7.83 µM (inactive),26.7 µM (inactive),27 µM (inactive),28.7 µM,38.3 µM (inactive),21.6 µM (inactive),26.6 µM (inactive),23 µM (inactive),16.6 µM (inactive),0.948 µM (active),27.5 µM (inactive),3.03 µM (inactive),14.5 µM (inactive),6.04 µM (inactive),46.3 µM (inactive),,18.4 µM (inactive),> 77.6 µM (inactive),> 84.9 µM (inactive),6.64 µM (inactive)
